Here are results for six compounds from US20240002326A1, “COMPOUNDS AND USE THEREOF IN METHODS OF TREATMENT” (The University of Queensland, priority 2016, published 2024).

The subject of data set [1] is HepG2. Kind of data set: Cytotoxicity assay (Alamar blue), HepG2. It counts as cell-based. The settings on record: HepG2, 24 h. (In general: Alamar Blue is a resazurin reagent that responds to reducing activity.)
Data set [2] deals with HEK293. Kind of data set: Cytotoxicity assay (Alamar blue), HEK293. It counts as cell-based. The settings on record: HEK293, 24 h. As for the experimental part:
(§1) Cell toxicity was determined using Alamar blue, as previously described (McMillian et al., 2002). COS-7 cells were seeded as 7000 cells per well in black wall clear bottom 96-well plates in DMEM medium (Life Technologies Australia) with 10% FBS. HepG2 and HEK293 cell lines, from ATCC, were seeded as 5000 cells per well in black wall clear bottom 384-well cell culture plates in DMEM with 1% FBS. Cells were cultured for 24 h at 37° C., 5% CO2. A serial dilution of compounds was added, with a final DMSO concentration adjusted to 0.5% v/v. Cells were incubated for another 24 h. 1 Triton X-100 was used as negative control, and 0.5% DMSO as positive control. 5 μM Alamar blue was added to each well and fluorescence was measured (λexc=560 nm, λem=590 nm) after 2 h incubation at 37° C. Data were analysed using Prism software.

Data set [3] addresses SOX18[109] HMG fragment (Mus musculus (Mouse), UniProt P43680). Kind of data set: FP DNA-binding competition assay, SOX18[109] HMG fragment. To be noted: SOX18/DNA binding; for remaining activity at 50 µM: read-out: FP bound fraction (%) 50 μM; for remaining activity at 200 µM: read-out: FP bound fraction (%) 200 μM. As for the experimental part:
Mouse SOX HMG fragments. The HMG domains of mouse SOX2 (Group B), SOX11 (Group C), SOX6 (Group D), SOX9 (Group E), SOX18 (Group F) and SOX15 (Group G) were BP cloned from cDNA templates (IMAGE cDNA clone IDs: Sox18: 3967084; Sox9: 5354229; Sox4: 6822618) into a pDONRTM221 pENTRY vector, sequenced and recombined into a pETG20A or a pHisMBP expression plasmid using Gateway®LR Technology (Ng et al., 2012). Constructs were transformed into Escherichia coli BL21(DE3) cells (Luria-Bertani, 100 μg/ml Ampicillin).
The DNA-binding competition assay was performed in black 384-well plates, with mouse full length SOX18, or SOX-HMG fragments. All experiments were performed using a fluorescently-labelled Prox1-DNA element. Controls consisted of free labelled DNA (low FP milli-Polarization index, mP), labelled DNA in presence of protein (negative control, high mP), and labelled DNA and protein in presence of competing excess of unlabelled DNA (positive control, low mP)
The DNA-binding competition assay was performed in 25 uL, in black 384-well plates, using either 30 mM HEPES (N-2-Hydroxyethylpiperazine-N′-2-Ethanesulfonic Acid) (pH 7.5, with 100 mM KCl, 40 mM NaCl, 10 mM NH4OAc, […], 2 mM MgCl2, 0.5 mM EDTA, 0.01% NP-40) for mouse full length SOX18, or Tris-NaCl (10 mM Tris pH 8.0 and 100 mM NaCl) for SOX-HMG fragments. All experiments were performed using a 40 bp double-stranded Prox1-DNA element with 5′ fluorescein amidite (FAM) label (Sigma Proligo or InVitrogen). Optimum binding levels were obtained at 200 nM of mouse full length SOX18 and 60 nM of SOX-HMG fragment, in presence of 5 nM labelled DNA. Controls consisted of free labelled DNA (low FP milli-Polarization index, mP), labelled DNA in presence of protein (negative control, high mP), and labelled DNA and protein in presence of 400 time competing excess of unlabelled DNA (positive control, low mP). Depending on compound, final DMSO concentrations ranged from 2 to 3.33% v/v. After mixing protein, DNA probe and compound, plates were sealed and briskly agitated in the dark for 5 minutes at room temperature, 10 minutes at 37° C., and 30 minutes at room temperature, before reading fluorescence polarization on a Tecan M1000Pro (λexc=485 nm, λem=525 nm). All experiments were performed in triplicates.
In order to pinpoint the possible binding site of the small molecules, the FP assays were repeated with a shorter, DNA-binding centred protein fragment. The DNA binding domain of SOX TFs consists of the […] amino acid long High Mobility Group (HMG) box. The 109 amino-acid long SOX18 fragment (SOX18[109]) corresponds to residues 69-177 (numbering by mouse SOX18), which includes the HMG box (residues 78-149) and N- and C-terminal flanking sequences of 9 and 28 amino-acids, respectively.

Data set [4] in a line: Cytotoxicity assay (Alamar blue), HepG2. It counts as cell-based. To be noted: human, HepG2 cells; HepG2, 24 h.
The target in data set [5] is SOX18-RBPJ interaction (Homo sapiens (Human), UniProt P35713). Kind of data set: ALPHAScreen SOX18-RBPJ protein-protein interaction. In kind it is binding. To be noted: 5 μM. The source says:
Proteins were genetically encoded with enhanced GFP (GFP), mCherry and cMyc (myc) tags, and cloned into cell free expression Gateway destination vectors: N-terminal GFP tagged (pCellFree_G03), N-terminal Cherry-cMyc (pCellFree_G07) and C-terminal Cherry-cMyc tagged (pCellFree_G08) (Gagoski et al., 2015). Human RBPJ (BC020780) and MEF2C (BC026341) Open Reading Frames (ORFs) were sourced from the Human ORFeome collection, version 1.1 and 5.1, and the Human Orfeome collaboration OCAA collection (Open Biosystems), as previously described (Sierecki et al., 2013) and cloned at the ARVEC facility, UQ Diamantina Institute. The entry clones pDONOR223 or pENTR201 vectors were exchanged with the ccdB gene in the expression plasmid by LR recombination (Life Technologies, Australia). The full-length human SOX18 gene was synthesized and the transfer to vectors was realized using Gateway PCR cloning. Translation competent Leishmania tarentolae extract (LTE) was prepared as previously described (Kovtun et al., 2011, Mureev et al., 2009). Protein pairs were co-expressed by adding 30 nM of GFP template plasmid and 60 nM of Cherry template plasmid to LTE and incubating for 3 hours at 27° C.
ALPHAScreen was performed as previously described (Sierecki et al., 2014, Sierecki et al., 2013). […] Percentage of interaction was calculated as: (I_cpd/I_DMSO)×100 from 3 independent experiments.
(§2) ALPHAScreen was performed as previously described (Sierecki et al., 2014, Sierecki et al., 2013), using the cMyc detection kit and Proxiplate-384 Plus plates (PerkinElmer). The LTE lysate co-expressing the proteins of interest was diluted in buffer A (25 mM HEPES, 50 mM NaCl). For the assay, 12.5 μL (0.4 μg) of Anti-cMyc coated Acceptor Beads in buffer B (25 mM HEPES, 50 mM NaCl, 0.001% NP40, 0.001% casein) were aliquoted into each well. This was followed by the addition of 2 μL of diluted sample, at different concentration, and 2 μL of biotin labeled GFP-Nanotrap in buffer A. The plates were incubated for 45 min at room temperature, then adding 2 μL (0.4 μg) of streptavidin-coated Donor Beads diluted in buffer A, and incubation in the dark for 45 min at room temperature. The ALPHAScreen signal was measured on an Envision Plate Reader (PerkinElmer), using manufacturer's recommended settings (λexc=680/30 nm for 0.18 s, λem=570/100 nm after 37 ms). The resulting bell-shaped curve is an indication of a positive interaction, while a flat line reflects a lack of interaction between the proteins. The measurement of each protein pair was repeated in triplicate.
(§3) I is the highest signal level (top of the hook effect curve) and Ineg is the lowest (background) signal level. The signals were normalized to the Iref signal obtained for the strongest interaction. […] Percentage of interaction was calculated as: […]
The ALPHA-Screen Assay was performed as previously described (Sierecki et al. 2014), using the cMyc detection kit and Proxiplate-384 Plus plates (PerkinElmer). A serial dilution of each sample was measured. The LTE lysate co-expressing the proteins of interest was diluted in buffer A (25 mM HEPES, 50 mM NaCl). For the assay, 12.5 μL (0.4 μg) of Anti-cMyc coated Acceptor Beads in buffer B (25 mM HEPES, 50 mM NaCl, 0.001% NP40, casein) were aliquoted into each well. This was followed by the addition of 2 μL of diluted sample and 2 μL of biotin labeled GFP-Nanotrap in buffer A. The plate was incubated for 45 min at RT. Afterward, 2 μL (0.4 μg) of Streptavidin coated Donor Beads diluted in buffer A, were added, followed by incubation in the dark for 45 min at RT. The ALPHA-Screen signal was obtained on an Envision Multilabel Plate Reader (PerkinElmer), using the manufacturer's recommended settings (excitation: 680/30 nm for 0.18 s, emission: 570/100 nm after 37 ms). The resulting bell-shaped curve is an indication of a positive interaction, while a flat line reflects a lack of interaction between the proteins. […]
(In general: In Alpha technology, singlet oxygen from a donor bead excites a nearby acceptor bead.)

Data set [6] can be described thus: Cytotoxicity assay (Alamar blue), HEK293. In kind it is cell-based. To be noted: human, HEK293 cells; HEK293, 24 h. As for the experimental part: as §1
Data set [7] deals with SOX18-SOX18 homodimer (Homo sapiens (Human), UniProt P35713). As to the kind of experiment: ALPHAScreen SOX18-SOX18 homodimerization. In kind it is binding. To be noted: 5 uM. The procedure: as §2, §3
SOX18-SOX18 homodimer, sequence (P35713 whole entry): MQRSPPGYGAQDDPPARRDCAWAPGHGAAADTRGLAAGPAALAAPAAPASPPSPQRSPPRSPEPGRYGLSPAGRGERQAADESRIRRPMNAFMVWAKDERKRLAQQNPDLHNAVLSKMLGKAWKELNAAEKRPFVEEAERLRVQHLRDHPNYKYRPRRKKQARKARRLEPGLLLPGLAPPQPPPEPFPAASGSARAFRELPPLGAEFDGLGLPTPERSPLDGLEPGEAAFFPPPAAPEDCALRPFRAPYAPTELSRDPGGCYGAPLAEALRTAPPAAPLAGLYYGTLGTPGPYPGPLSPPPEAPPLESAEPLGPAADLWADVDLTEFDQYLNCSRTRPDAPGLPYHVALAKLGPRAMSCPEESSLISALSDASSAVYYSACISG
The ALPHA-Screen Assay was performed as previously described (Sierecki et al. 2014), using the cMyc detection kit and Proxiplate-384 Plus plates (PerkinElmer). A serial dilution of each sample was measured. The LTE lysate co-expressing the proteins of interest was diluted in buffer A (25 mM HEPES, 50 mM NaCl). For the assay, 12.5 μL (0.4 μg) of Anti-cMyc coated Acceptor Beads in buffer B (25 mM HEPES, 50 mM NaCl, 0.001% NP40, casein) were aliquoted into each well. This was followed by the addition of 2 μL of diluted sample and 2 μL of biotin labeled GFP-Nanotrap in buffer A. The plate was incubated for 45 min at RT. Afterward, 2 μL (0.4 μg) of Streptavidin coated Donor Beads diluted in buffer A, were added, followed by incubation in the dark for 45 min at RT. The ALPHA-Screen signal was obtained on an Envision Multilabel Plate Reader (PerkinElmer), using the manufacturer's recommended settings (excitation: 680/30 nm for 0.18 s, emission: 570/100 nm after 37 ms). The resulting bell-shaped curve is an indication of a positive interaction, while a flat line reflects a lack of interaction between the proteins. The measurement of each protein pair was repeated a minimum of three times using separate plates. The Binding Index was calculated as: BI=[(I−I_neg)/(I_ref−I_neg)]×100
For PPI disruption assay, protein pairs expressed in LTE were incubated for 1 h with 100 μM Sm4 or DMSO alone (0.7% DMSO final). 100 μM Sm4 or DMSO was also added to buffer B. PPI disruption was calculated as: (1−I_Sm4/I_DMSO)×100.
For IC50 determination, the assay was identical but a dilution range of Sm4 was used (0.3 to 300 μM). Percentage of interaction was calculated as: I_Sm4/1 DMSO×100. Data from at least 3 independent experiments were fitted in GraphPad Prism (RRID: SCR_007370) version 6.0 using 3-parameter non-linear regression.

SOX18[109] HMG fragment, sequence (P43680 69-177): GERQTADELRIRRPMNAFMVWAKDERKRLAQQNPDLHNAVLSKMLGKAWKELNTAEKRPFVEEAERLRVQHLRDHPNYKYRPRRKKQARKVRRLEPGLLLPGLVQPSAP
SOX18-RBPJ interaction, sequence (P35713 whole entry): as the sequence (P35713 whole entry) above

Turning to `COc1cc(O)c(C(=O)O)c(C=Cc2ccc3ccccc3c2)c1` (mixture of isomers) [Sm28, (E/Z)-2-hydroxy-4-methoxy-6-(2-(naphthalen-2-yl)vinyl)benzoic acid], the CC50 (as a rule, the concentration that lowers cell viability or growth by half) in data set [1] was 78.9 µM; in data set [2], 65.1 µM. For the same compound, in data set [3], the “FP bound fraction (%) 50 μM” value was found to be 76.3 ± 2.3%. Also, in data set [3], the “FP bound fraction (%) 200 μM” value was determined as 19.3 ± 8.4%.

Take `CCN(CC)C(=O)c1c(O)cccc1CCc1ccc2ccccc2c1` [Sm18, N,N-diethyl-2-hydroxy-6-(2-(naphthalen-2-yl)ethyl)benzamide]: the half-maximal cytotoxic concentration (CC50) at 24 h in data set [4] came to 28 µM. Moreover, the “SOX18-RBPJ protein-protein binding inhibition at 5 μM” value in data set [5] is on record as “highly active”. In data set [6], this compound had a CC50 at 24 h of 38.7 µM. For the same compound, in data set [3], the remaining activity at 50 µM came out at 98.7 ± 5% and the remaining activity at 200 µM is 107 ± 21.3%.

As for `COc1cc(Cl)cc(/C=C/c2ccc3ccccc3c2)c1C(=O)O` [Sm31, (E)-4-chloro-2-methoxy-6-(2-(naphthalen-2-yl)vinyl)benzoic acid], in data set [4], the CC50 at 24 h is above 100 µM. For the same compound, the “inhibitory activity in respect of SOX18-SOX18 homodimerization” value (“inhibitory activity” for short) in data set [7] is listed as “some inhibitory activity”. The compound further had a CC50 at 24 h in data set [6] of 92.7 µM. In addition, in data set [3], the remaining activity at 50 µM turned out to be 97.7 ± 5.9% and the remaining activity at 200 µM is 91.7 ± 2.1%.

For `O=C(O)c1c(O)cc(Cl)cc1CCc1ccc2ccccc2c1` [Sm33, (E)-4-chloro-2-hydroxy-6-(2-(naphthalen-2-yl)ethyl)benzoic acid], the CC50 in data set [1] is 34.5 µM. Also, the CC50 in data set [2] was 33.4 µM. In data set [3], the “FP bound fraction (%) 50 μM” value worked out at 50.1 ± 54.6% and the “FP bound fraction (%) 200 μM” value is 9.9 ± 2.3%.

Compound `COc1cc(/C=C\c2ccccc2)cc(OC)c1OC` [Sm37, (Z)-1,2,3-trimethoxy-5-styrylbenzene] displayed a CC50 at 24 h in data set [4] above 100 µM. Also, the “inhibitory activity” value in data set [7] is recorded as “some inhibitory activity”. The same compound displayed a CC50 at 24 h in data set [6] above 100 µM. In addition, in data set [3], the remaining activity at 50 µM came out at 98.2 ± 7.4% and the remaining activity at 200 µM worked out at 104 ± 10.4%.

Compound `COc1cc(/C=C\c2ccc3ccccc3c2)cc(OC)c1OC` [Sm41, (Z)-2-(3,4,5-trimethoxystyryl)naphthalene] displayed a CC50 at 24 h in data set [4] above 100 µM. For the same compound, the “inhibitory activity” value in data set [7] was “some inhibitory activity”. For the same compound, in data set [6], the CC50 at 24 h was above 100 µM. In addition, in data set [3], the remaining activity at 50 µM worked out at 100 ± 10% and the remaining activity at 200 µM amounted to 90.2 ± 46.1%.
